One data set relates to prostate cancer (CaP). Nature of the data set: Strontium alone or with full dietary support program in prostate cancer patients: hormone/PSA levels and clinical course. The data set is classed as in vivo, human. The protocol: In addition to the dietary biomodulating components prescribed (see Table 1), the patient ingested a daily amount of 7 mg of strontium oxide, contained in birch ash that they prepared at home and was taking continuously at a dose of about 8 g per day.
• 1. Oral administration of each (2-5 g/day) of respective L-amino acids: Arg, Asp, Glu, Gly, Lys and Ser in connection with meals. The amino acids are manufactured by Degussa Ag, Germany. • 2. […] Small physiologic amounts of vitamins: A, B, C, D, E, K, folic acid and lycopene. • 4. To improve lymphopoiesis and the immune defense of patients a diet containing prionfree neurogenic lipids (equivalent to approx. 50 g of brain) was recommended, (purchased and canned by Neurofood Ltd. Finland). • 5. All these dietary ingredients can be mixed together in yoghurt, forming a daily ration, using pre-packed pulvers. • 6. Dose-levels are adjusted based on clinical response as measured, and correlated to the patient's body weight.
The effect of strontium intake on selected physiological reactions was evaluated by administering strontium alone or together with the full dietary support program described in table 1 to four prostate cancer patients, P1-P4, and to one healthy individual.

For data set [1] the following is noted: long-lasting use for diagnostic purposes, i.v. dose up to 80 mg SrCl2; cited from earlier work.
Data set [2] in a line: Effect of strontium intake on serum hormone levels in healthy individual(s). The data set is classed as in vivo, human. The protocol:
When healthy individuals were given 7 mg strontium chloride per day, the PRL level increased within two weeks 50-80% from a normal base value. […]
The effect of strontium intake on selected physiological reactions was evaluated by administering strontium alone or together with the full dietary support program described in table 1 to four prostate cancer patients, P1-P4, and to one healthy individual. The results are shown in table 4, which also gives the normal values for the measured hormones.

[3] abbreviates: laboratory pattern, orchiectomized patient P1 (No. 1), 7 mg strontium oxide daily plus dietary biomodulating components.
Setting [4] is: patient P1, year 2003, 7 mg strontium oxide daily (birch ash) plus dietary biomodulating components.
The mark [5] stands for this setting: patients diagnosed with prostate cancer, administration of strontium.
[6] abbreviates: P0 without Sr for three weeks (after the Sr course).
Where [7] appears, read: healthy individual P0, after Sr 7 mg, 14 days.
[8] abbreviates: healthy individuals, 7 mg strontium chloride per day, two weeks.
The mark [9] stands for this setting: healthy persons, ingestion of strontium (in mg's).

Turning to `[O-2].[Sr+2]` [strontium oxide], in the data set on prostate cancer (CaP) (setting [3]), the Activin was 330 to 500 pg/mL, the DHEA is recorded as less than 2.0 nmol/L, the DHEAS was less than 0.8 µmol/L and the Inhibin was less than 7.8 pg/mL. Further, in the data set with prostate cancer (CaP) (setting [3]), the PRL was 15-95 mU/L, the PSA was less than 0.1 µg/L, the SHBG is 58 to 61 nmol/L and the Testost came to 1.0 nmol/L. For the same compound, the “time until bone-metastases disappeared” value with prostate cancer (CaP) (patient P1, multiple bone-metastases) is on record as “four”. The “time until bone-pain subsided” value in the data set with prostate cancer (CaP) (patient P1, multiple bone-metastases, from beginning of treatment) came to 6 months. Further, in the data set with prostate cancer (CaP) (setting [4]), the DHEA value entry is “below 2.0”, the FSH level entry is reported as “about 48 IU/l” and the “prolactin (PRL) value” is “about 97 mU/l”. Besides, the “serum DHEAS level” value in the data set with prostate cancer (CaP) (patient P1, year 2003, 7 mg strontium oxide daily (birch ash) plus dietary biomodulating components, below detectable limit) is reported as less than 0.8. In addition, the clinical condition result with prostate cancer (CaP) (patient P1, year 2003, treatment since 1990) is on record as “excellent clinical condition”.
As for `[Cl-].[Cl-].[Sr+2]` [strontium chloride], in the data set on prostate cancer (CaP) (setting [5]), the DHEAS level result is given as “decrease”, the FSH level result was “increases” and the PSA level result is “decrease”. Besides, in the data set with prostate cancer (CaP) (prostate cancer patient P2), the DHEAS is less than 0.8 µmol/L, the PRL was 852 mU/L and the PSA was found to be 12.6 µg/L. In the data set with prostate cancer (CaP) (prostate cancer patient P3 ±), the DHEAS turned out to be 2.5 µmol/L, the FSH was determined as 12 IU/L, the PRL was 568 mU/L and the PSA turned out to be 12.7 µg/L. Also, in the data set with prostate cancer (CaP) (prostate cancer patient P3 ±), the “serum DHEA” value came out at 4.3 nmol/L. Also, in the data set with prostate cancer (CaP) (prostate cancer patient P4 ±), the DHEAS was less than 0.8 µmol/L, the FSH was 13 IU/L, the PRL amounted to 1879 mU/L and the PSA came to 24.0 µg/L. Besides, the “serum DHEA” value in the data set on prostate cancer (CaP) (prostate cancer patient P4 ±) is on record as 2.4 nmol/L. In addition, the harmful side effects entry in data set [1] was “No harmful therapeutic side effects”. In data set [2] (setting [6]), this compound came in with a DHEAS of 2.7 µmol/L, an FSH of 11 IU/L, a PRL of 337 mU/L and a PSA of 0.4 µg/L. For the same compound, in data set [2] (setting [6]), the “serum DHEA” value came out at 3.6 nmol/L. In data set [2] (setting [7]), this compound yielded a DHEAS of 2.3 µmol/L, an FSH of 13 IU/L, a PRL of 389 mU/L and a PSA of 0.4 µg/L. Further, the “serum DHEA” value in data set [2] (setting [7]) is 9.8 nmol/L. Moreover, the FSH level result in data set [2] (healthy individuals, 7 mg strontium chloride per day) is on record as “can increase or remain on a level exceeding normal levels”. For the same compound, in data set [2] (setting [8]), the “serum DHEA level” value was “can show an increase in value” and the “serum DHEAS level” value is listed as “decreased”. Also, the “serum prolactin (PRL) level increase” value in data set [2] (healthy individuals, 7 mg strontium chloride per day, within two weeks, from normal base value) is reported as 50-80%. Besides, in data set [2] (setting [9]), the PRL increase was greater than 50% and the “decrease in DHEAS” value is on record as roughly 40%.

The values above are taken from patent US20100074968A1, “AGENT AND METHOD FOR TREATING CANCER COMPRISING STRONTIUM, AMINO ACID(S) AND MINERAL AGENT(S)” (HELSINGFORS INSTITUTION FÖR BIOMMUNTERAPI AB., priority 2003, published 2010).
